Consider one substance from US9260534B2, “Site-directed PEG-modified exendin-4 analogs and uses thereof” (priority 2010, dated 2016).

The subject of this test is GLP-1 receptor. Nature of the test: Evaluation of agonistic activity on GLP-1 receptor (CRE-luciferase reporter in HEK293 cells). It is filed as cell-based. The settings on record: HEK293 cells stably expressing CRE-luciferase reporter system; cellular level. The source says: GLP-1 receptor is a Gs-coupled GPCR. CRE-luciferase reporter system was stably expressed in human embryonic kidney epithelial cell line HEK293 used for evaluation. Therefore, once the receptor was activated, the enhancement of intracellular concentration of the second messenger cAMP through Gs signal pathway would initiate the expression of the luciferase gene in the reporter system. The ability of the test compounds to stimulate and activate GLP-1 receptor was reflected by the detected expression level of the luciferase reporter gene.
(In general: Reporter assays use an easily measured gene product as a stand-in for the process of interest.)

“[Cys^21(mPEG5000-MAL)]Exendin-4 [Compound 1]” had an EC50 of 0.0225 µM.

Usually EC50 stands for the midpoint of the concentration-response curve. A higher EC50 goes with a less potent agent.
